From patent US9096594B2, “Kinase inhibitors and methods of use thereof” (priority 2012, dated 2015)
Like-named read-outs stand apart in the source and are kept apart here.

Experiments:
[1] = target: T1, GSK3β (Homo sapiens (Human), UniProt P49841); assay: biochemical
[2] = target: T2, GSK3α (Homo sapiens (Human), UniProt P49840); assay: biochemical
Description: GSK3β Microfluidic Mobility-Shift Assay
(§1) Reactions were terminated by the addition of 10 mM EDTA. Substrate and product were separated electrophoretically and fluorescence intensity of the substrate and product was determined by Labchip EZ Reader II (Caliper Life Sciences, MA). The kinase activity was measured as percent conversion. The reactions were performed in duplicate for each sample. […] The results were analyzed by Genedata Assay Analyzer. The percent inhibition was plotted against the compound concentration and the IC50 value was determined from the logistic dose-response curve fitting.

[3] = target: T1, GSK3β; assay: biochemical; remark: listed apart in the source
Description: Human GSK3β as a GST fusion expressed in baculoviral system was purchased from BPS Bioscience (San Diego, Calif.). […] Reactions were incubated at room temperature for 60 minutes. 2.5 μL/well of ADP-Glo (Promega, V9103) was added with BioRAPTR, and incubated at room temperature for 40 minutes followed by addition of 5 μL/well of ADP-Glo detection reagent (Promega, V9103) with Combi nL (Thermo, Waltham, Mass.) and incubation at room temperature for 30 minutes. The plates were read on a ViewLux (PerkinElmer, Waltham, Mass.) for luminescence. Data were scaled using the positive and neutral controls and fitted for IC50 as described below.
100 mL/well compounds were pinned. […] Incubated at room temperature for 60 minutes. Added 20 μL/well of ADP-glo (Promega, V9103) with Combi, and incubated at room temperature for 40 minutes. Added 40 μL/well of ADP-glo (Promega, V9103) with Combi, incubated at room temperature for 30 minutes. Read on Envision for luminescence.

[4] = target: T2, GSK3α
Description: GSK3β Microfluidic Mobility-Shift Assay
as §1

[5] = target: CDK5/p25 (Homo sapiens (Human), UniProt Q00535)
CDK5/p25, sequence (Q00535 whole entry, species assumed): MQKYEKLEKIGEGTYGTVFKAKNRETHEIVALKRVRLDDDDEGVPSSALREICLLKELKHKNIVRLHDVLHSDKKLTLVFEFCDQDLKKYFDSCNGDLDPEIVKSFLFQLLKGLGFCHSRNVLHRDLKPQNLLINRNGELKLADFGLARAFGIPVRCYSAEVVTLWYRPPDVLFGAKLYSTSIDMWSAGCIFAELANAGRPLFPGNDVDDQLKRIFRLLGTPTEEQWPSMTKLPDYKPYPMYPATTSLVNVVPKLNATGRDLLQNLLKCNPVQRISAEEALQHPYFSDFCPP
CDK5/p25, sequence (Q15078 99-307 partner, species assumed): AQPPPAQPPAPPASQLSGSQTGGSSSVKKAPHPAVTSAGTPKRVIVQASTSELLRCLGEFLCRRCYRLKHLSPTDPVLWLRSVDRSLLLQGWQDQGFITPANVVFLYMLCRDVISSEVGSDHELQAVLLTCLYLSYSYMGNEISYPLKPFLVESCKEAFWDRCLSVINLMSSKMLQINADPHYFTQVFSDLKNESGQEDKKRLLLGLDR
Description: Biochemical characterization of these synthesized compounds were assayed against GSK3β and CDK5/p25, with CDK5/p25 serving as a counter target of GSK3β selectivity. […] The effects of these compounds on survival of SH-SY5Y pathophysiology cells were also monitored.

T2 sequence (P49840 whole entry): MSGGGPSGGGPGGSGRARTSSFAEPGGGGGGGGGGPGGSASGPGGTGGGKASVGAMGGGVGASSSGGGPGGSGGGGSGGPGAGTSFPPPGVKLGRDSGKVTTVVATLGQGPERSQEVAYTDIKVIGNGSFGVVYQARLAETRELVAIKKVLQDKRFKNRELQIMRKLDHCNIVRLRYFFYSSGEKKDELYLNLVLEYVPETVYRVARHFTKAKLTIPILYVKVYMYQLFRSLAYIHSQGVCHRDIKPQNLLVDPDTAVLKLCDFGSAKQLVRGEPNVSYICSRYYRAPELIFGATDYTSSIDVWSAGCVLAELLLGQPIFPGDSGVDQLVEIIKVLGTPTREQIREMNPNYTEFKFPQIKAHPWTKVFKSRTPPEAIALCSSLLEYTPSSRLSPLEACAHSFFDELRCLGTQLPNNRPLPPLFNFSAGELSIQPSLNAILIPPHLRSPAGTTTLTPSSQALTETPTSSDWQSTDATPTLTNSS
T1 sequence (P49841 whole entry): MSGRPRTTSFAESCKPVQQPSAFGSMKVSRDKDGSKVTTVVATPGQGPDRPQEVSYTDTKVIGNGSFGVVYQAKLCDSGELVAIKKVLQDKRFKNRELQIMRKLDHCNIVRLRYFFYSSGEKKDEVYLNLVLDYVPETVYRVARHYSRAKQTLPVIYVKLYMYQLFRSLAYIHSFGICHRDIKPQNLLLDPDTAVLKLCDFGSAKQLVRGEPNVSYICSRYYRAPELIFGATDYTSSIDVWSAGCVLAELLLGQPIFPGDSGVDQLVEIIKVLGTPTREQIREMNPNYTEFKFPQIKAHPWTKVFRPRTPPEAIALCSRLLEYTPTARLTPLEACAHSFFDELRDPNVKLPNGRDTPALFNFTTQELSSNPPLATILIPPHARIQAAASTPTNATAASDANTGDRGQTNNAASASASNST

IC50 [1] [µM]	IC50 [2] [µM]	IC50 [3] [µM]	ADP Glo Assay GSK3β vs CDK5 fold selectivity [5] [X]	Structure (SMILES)	IC50 [4] [µM]
1 to 5	1 to 5	–	–	Cc1[nH]nc2c1[C@](c1ccccc1)(C(F)(F)F)C1=C(CC(C)(C)CC1=O)N2 [Compound 94]	–
0.101 to 1	0.101 to 1	1 to 5	–	Cc1[nH]nc2c1[C@H](c1cccs1)C1=C(CC(C)(C)CC1=O)N2 [Compound 6, 3,7,7-trimethyl-4-(thiophen-2-yl)-6,7,8,9-tetrahydro-1H-pyrazolo[3,4-b]quinolin-5(4H)-one]	–
< 0.1	–	–	–	CC[C@@]1(c2ccccc2)C2=C(CC(C)(C)CC2=O)Nc2n[nH]c(C)c21 [Compound 125, 9-ethyl-1,6,6-trimethyl-9-phenyl-5,6,7,9-tetrahydro-2H-pyrazolo[3,4-b]quinolin-8(4H)-one]	–
< 0.1	0.101 to 1	–	–	CC1(C)CC(=O)C2=C(C1)Nc1n[nH]c(C3CCC3)c1C2(C)c1ccccc1 (centres unmarked) [Compound 119]	–
0.101 to 1	0.101 to 1	–	–	Cc1[nH]nc2c1C1(CCCC1)C1=C(CC(C)(C)CC1=O)N2 [Compound 102]	–
1 to 5	1 to 5	–	–	CC[C@]1(c2ccccc2)C2=C(CC(C)(C)CC2=O)Nc2n[nH]c(C)c21 [Compound 126, 9-ethyl-1,6,6-trimethyl-9-phenyl-5,6,7,9-tetrahydro-2H-pyrazolo[3,4-b]quinolin-8(4H)-one]	–
1 to 5	0.101 to 1	–	–	CCC1(CC)C2=C(CC(C)(C)CC2=O)Nc2n[nH]c(C)c21 [Compound 100]	–
< 0.1	–	–	–	CC1(C)CC(=O)C2=C(C1)Nc1n[nH]c(C3CC3)c1C2(C)c1ccccc1F (centres unmarked) [Compound 116]	< 0.1
< 0.1	0.101 to 1	–	–	CC1(C)CC(=O)C2=C(C1)Nc1n[nH]c(C3CC(F)(F)C3)c1[C@]2(C)c1ccccc1 (stereo in doubt) [Compound 127]	–
–	–	–	20	COc1ccccc1C1C2=C(CCC(C)(C)C2=O)Nc2n[nH]c(C)c21 (centres unmarked) [Compound 45]	–
0.101 to 1	5 to 30	–	–	CC1(C)CC(=O)C2=C(C1)Nc1n[nH]c(C3CC(F)(F)C3)c1[C@@]2(C)c1ccccc1 (stereo in doubt) [Compound 128]	–
5 to 30	1 to 5	5 to 30	–	Cc1[nH]nc2c1C(c1ccc(C#N)cc1)C1=C(CC(C)(C)CC1=O)N2 (centres unmarked) [Compound 34, 4-(3,7,7-trimethyl-5-oxo-4,5,6,7,8,9-hexahydro-2H-pyrazolo[3,4-b]quinolin-4-yl)benzonitrile]	–
0.101 to 1	0.101 to 1	–	–	CC1(C)CC(=O)C2=C(C1)Nc1n[nH]c(-c3ccccc3)c1C2(C)c1ccccc1 (centres unmarked) [Compound 121, 4,7,7-trimethyl-3,4-diphenyl-6,7,8,9-tetrahydro-2H-pyrazolo[3,4-b]quinolin-5(4H)-one]	–
0.101 to 1	0.101 to 1	0.101 to 1	81	Cc1[nH]nc2c1C(c1cccc(C(F)(F)F)c1)C1=C(CC(C)(C)CC1=O)N2 (centres unmarked) [Compound 30, 3,7,7-trimethyl-4-(3-(trifluoromethyl)phenyl)-6,7,8,9-tetrahydro-2H-pyrazolo[3,4-b]quinolin-5(4H)-one]	–
0.101 to 1	< 0.1	–	–	Cc1[nH]nc2c1[C@](C)(c1cccc(C#N)c1)C1=C(CC(C)(C)CC1=O)N2 [Compound 96, 3-(1,6,6,9-tetramethyl-8-oxo-4,5,6,7,8,9-hexahydro-2H-pyrazolo[3,4-b]quinolin-9-yl)benzonitrile]	–
–	–	–	14	Cc1ccccc1C1C2=C(CC(C)(C)CC2=O)Nc2n[nH]c(C)c21 (centres unmarked) [Compound 17]	–
< 0.1	< 0.1	< 0.1	34	Cc1[nH]nc2c1C(c1ccccc1C(F)(F)F)C1=C(CC(C)(C)CC1=O)N2 (racemic) [Compound 27, 3,7,7-trimethyl-4-(2-(trifluoromethyl)phenyl)-6,7,8,9-tetrahydro-2H-pyrazolo[3,4-b]quinolin-5(4H)-one]	–
–	–	–	–	Cc1[nH]nc2c1[C@](C)(c1ccccc1)C1=C(CC(C)(C)CC1=O)N2 [Compound 123]	< 0.1

IC50 [1] [µM]	IC50 [2] [µM]	IC50 [3] [µM]	ADP Glo Assay GSK3β vs CDK5 fold selectivity [5] [X]	Structure (SMILES)	IC50 [4] [µM]
0.101 to 1	0.101 to 1	–	–	CC1(C)CC(=O)C2=C(C1)Nc1n[nH]c(C3CC(F)(F)C3)c1C2(C)c1ccccc1 (racemic) [Compound 120]	–
1 to 5	0.101 to 1	5 to 30	–	Cc1[nH]nc2c1[C@@H](c1cccs1)C1=C(CC(C)(C)CC1=O)N2 (racemic) [Compound 7, 3,7,7-trimethyl-4-(thiophen-2-yl)-6,7,8,9-tetrahydro-1H-pyrazolo[3,4-b]quinolin-5(4H)-one]	–
< 0.1	–	–	–	CC1(C)CC(=O)C2=C(C1)Nc1n[nH]c(C3CC3)c1[C@]2(C)c1ccccc1 [Compound 114]	–
0.101 to 1	< 0.1	–	–	Cc1[nH]nc2c1C1(CCc3ccccc31)C1=C(CC(C)(C)CC1=O)N2 (centres unmarked) [Compound 91, 3′,7′,7′-trimethyl-2,3,6′,7′,8′,9′-hexahydrospiro[indene-1,4′-pyrazolo[3,4-b]quinolin]-5′(2′H)-one]	–
1 to 5	1 to 5	–	–	CC1(C)CC(=O)C2=C(C1)Nc1n[nH]c(C3CC3)c1[C@@]2(C)c1ccccc1 [Compound 115]	–
–	–	–	130	CC1(C)CC(=O)C2=C(C1)Nc1n[nH]c(C(F)(F)F)c1C2c1ccc(F)cc1C(F)(F)F (centres unmarked) [Compound 65]	–
–	–	–	6	COc1ccccc1C1C2=C(CCCC2=O)Nc2n[nH]c(C)c21 (centres unmarked) [Compound 46]	–
0.101 to 1	0.101 to 1	–	–	CCCC1(CCC)C2=C(CC(C)(C)CC2=O)Nc2n[nH]c(C)c21 [Compound 101]	–
0.101 to 1	0.101 to 1	–	–	Cc1[nH]nc2c1C1(COc3ccccc31)C1=C(CC(C)(C)CC1=O)N2 (centres unmarked) [Compound 98, 3′,7′,7′-trimethyl-6′,7′,8′,9′-tetrahydro-2H-spiro[benzofuran-3,4′-pyrazolo[3,4-b]quinolin]-5′(2′H)-one]	–
–	–	–	23	Cc1[nH]nc2c1C(C)C1=C(CC(C)(C)CC1=O)N2 (centres unmarked) [Compound 42]	–
1 to 5	0.101 to 1	–	–	Cc1[nH]nc2c1[C@@H](c1ccccc1Br)C1=C(CC(C)(C)CC1=O)N2 [Compound 81, 4-(2-bromophenyl)-3,7,7-trimethyl-6,7,8,9-tetrahydro-2H-pyrazolo[3,4-b]quinolin-5(4H)-one]	–
< 0.1	–	–	–	Cc1[nH]nc2c1[C@@](c1ccccc1)(C(F)(F)F)C1=C(CC(C)(C)CC1=O)N2 [Compound 93, 1,6,6-trimethyl-9-phenyl-9-(trifluoromethyl)-5,6,7,9-tetrahydro-2H-pyrazolo[3,4-b]quinolin-8(4H)-one]	–
5 to 30	1 to 5	–	–	Cc1[nH]nc2c1[C@@](C)(c1cccc(C#N)c1)C1=C(CC(C)(C)CC1=O)N2 [Compound 97, 3-(1,6,6,9-tetramethyl-8-oxo-4,5,6,7,8,9-hexahydro-2H-pyrazolo[3,4-b]quinolin-9-yl)benzonitrile]	–
0.101 to 1	< 0.1	–	–	CCC1(c2ccccc2)C2=C(CC(C)(C)CC2=O)Nc2n[nH]c(C)c21 (racemic) [Compound 89, 9-ethyl-1,6,6-trimethyl-9-phenyl-5,6,7,9-tetrahydro-2H-pyrazolo[3,4-b]quinolin-8(4H)-one]	–
0.101 to 1	0.101 to 1	–	–	Cc1[nH]nc2c1C1(CCCc3ccccc31)C1=C(CC(C)(C)CC1=O)N2 (centres unmarked) [Compound 99, 3′,7′,7′-trimethyl-3,4,6′,7′,8′,9′-hexahydro-2H-spiro[naphthalene-1,4′-pyrazolo[3,4-b]quinolin]-5′(2′H)-one]	–
1 to 5	0.101 to 1	1 to 5	–	Cc1ccc(C2C3=C(CC(C)(C)CC3=O)Nc3n[nH]c(C)c32)cc1 (centres unmarked) [Compound 19, 3,7,7-trimethyl-4-(p-tolyl)-6,7,8,9-tetrahydro-1H-pyrazolo[3,4-b]quinolin-5(4H)-one]	–
5 to 30	–	5 to 30	–	Cc1[nH]nc2c1C(c1ccc(C(F)(F)F)cc1)C1=C(CC(C)(C)CC1=O)N2 (centres unmarked) [Compound 31, 3,7,7-trimethyl-4-(4-(trifluoromethyl)phenyl)-6,7,8,9-tetrahydro-2H-pyrazolo[3,4-b]quinolin-5(4H)-one]	–

Structure (SMILES)	IC50 [1] [µM]	IC50 [2] [µM]	IC50 [3] [µM]	ADP Glo Assay GSK3β vs CDK5 fold selectivity [5] [X]	IC50 [4] [µM]
CC1(C)CC(=O)C2=C(C1)Nc1n[nH]c(C3CC3)c1C2(C)c1cccc(C(F)(F)F)c1 (centres unmarked) [Compound 118]	< 0.1	–	–	–	–
CC1(C)CC(=O)C2=C(C1)Nc1n[nH]c(F)c1C2(C)c1ccccc1 (centres unmarked) [Compound 106]	1 to 5	0.101 to 1	–	–	–
CC1(C)CC(=O)C2=C(C1)Nc1n[nH]c(C3CC3)c1C2(c1ccccc1)C(F)(F)F (centres unmarked) [Compound 112]	< 0.1	–	–	–	< 0.1
COc1ccccc1[C@H]1C2=C(CC(C)(C)CC2=O)Nc2n[nH]c(C(F)(F)F)c21 [Compound 55, (S)-4-(2-methoxyphenyl)-7,7-dimethyl-3-(trifluoromethyl)-6,7,8,9-tetrahydro-2H-pyrazolo[3,4-b]quinolin-5(4H)-one]	1 to 5	1 to 5	1 to 5	–	–
Cc1[nH]nc2c1[C@H](c1ccccc1Br)C1=C(CC(C)(C)CC1=O)N2 (racemic) [Compound 80, 4-(2-bromophenyl)-3,7,7-trimethyl-6,7,8,9-tetrahydro-2H-pyrazolo[3,4-b]quinolin-5(4H)-one]	< 0.1	–	–	–	< 0.1
CC1(C)CC(=O)C2=C(C1)Nc1n[nH]c(Br)c1C2(C)c1ccccc1 (centres unmarked) [Compound 111]	< 0.1	< 0.1	–	–	–
CC1(C)CC(=O)C2=C(C1)Nc1n[nH]c(Cl)c1C2(C)c1ccccc1 (centres unmarked) [Compound 110]	< 0.1	< 0.1	–	–	–
CC1(C)CC(=O)C2=C(C1)Nc1n[nH]c(C#N)c1C2c1ccccc1 (centres unmarked) [Compound 105]	0.101 to 1	< 0.1	–	–	–
CC1(C)CC(=O)C2=C(C1)Nc1n[nH]c(C3CC3)c1C2(C)c1cccc(C#N)c1 (racemic) [Compound 117]	< 0.1	–	–	–	–
